assay: Antioxidant activity against AAPH-induced hemolysis in Homo sapiens (human) RBC assessed as inhibition time at 10 uM by spectrophotometry; format: functional, Erythrocyte

Row | SMILES | Time
1 | CCOC(=O)CNC(=O)/C=C/c1ccc(O)c(O)c1 | 180 min
2 | CCOC(=O)CNC(=O)/C=C/c1ccc(O)c(OC)c1 | 193 min
3 | CCOC(=O)CNC(=O)/C=C/c1ccc(O)cc1 | 138 min
4 | CCOC(=O)[C@H](Cc1ccccc1)NC(=O)/C=C/c1ccc(O)c(OC)c1 | 198 min
5 | CCOC(=O)/C=C/c1ccc(O)c(OC)c1 [ETHYL FERULATE] | 150 min
6 | COc1cc(/C=C/C(=O)O)ccc1O [FERULATE] | 148 min

assay: Antioxidant activity assessed as DPPH scavenging activity after 30 min by UV-vis spectroscopy; format: functional

Row | SMILES | IC50
7 | CCOC(=O)CNC(=O)/C=C/c1ccc(O)c(O)c1 | 12.8 µM
8 | CCOC(=O)CNC(=O)/C=C/c1ccc(O)c(OC)c1 | 64.6 µM
9 | CCOC(=O)[C@H](Cc1ccccc1)NC(=O)/C=C/c1ccc(O)c(OC)c1 | 52.4 µM
10 | CCOC(=O)[C@H](Cc1ccccc1)NC(=O)/C=C\c1ccc(O)cc1 | > 200 µM
11 | COC(=O)[C@H](Cc1ccc(O)cc1)NC(=O)/C=C/c1ccc(O)cc1 | > 200 µM
12 | O=C(O)/C=C/c1ccc(O)c(O)c1 [CAFFEIC ACID] | 18.2 µM
13 | O=C(O)/C=C/c1ccc(O)cc1 [COUMARIC ACID] | > 200 µM
14 | CCOC(=O)/C=C/c1ccc(O)c(O)c1 [ETHYL CAFFEATE] | 49 µM
15 | CCOC(=O)/C=C/c1ccc(O)c(OC)c1 [ETHYL FERULATE] | 150 µM

Now from value to molecule:

Row | IC50 | SMILES
16 | > 200 µM | CCOC(=O)CNC(=O)/C=C/c1ccc(O)cc1
17 | 1.45 µM | CCOC(=O)[C@H](Cc1ccccc1)NC(=O)/C=C/c1ccc(O)c(O)c1
18 | 87.2 µM | CCOC(=O)[C@@H](NC(=O)/C=C/c1ccc(O)c(OC)c1)C(C)C
19 | 29.6 µM | O=C1O[C@H]([C@@H](O)CO)C(O)=C1O [ASCORBIC ACID]
20 | > 200 µM | CCOC(=O)/C=C/c1ccc(O)cc1 [ETHYL P-COUMARATE]
21 | 50.1 µM | COc1cc(/C=C/C(=O)O)ccc1O [FERULATE]

— ChEMBL document CHEMBL3044852, “Synthesis of N-hydroxycinnamoyl amino acid ester analogues and their free radical scavenging and antioxidative activities” (Med Chem Res, 2012)
